The text below walks through data of US6747049B2, “Oxazole derivatives” (Hoffmann-La Roche Inc., priority 2002, dated 2004).

Experiment [1] addresses T1, PPARγ (Mus musculus, UniProt P37238).
T1 construct: made in house; host or cells: E. coli BL21(pLysS)
T1 sequence (P37238 204-505): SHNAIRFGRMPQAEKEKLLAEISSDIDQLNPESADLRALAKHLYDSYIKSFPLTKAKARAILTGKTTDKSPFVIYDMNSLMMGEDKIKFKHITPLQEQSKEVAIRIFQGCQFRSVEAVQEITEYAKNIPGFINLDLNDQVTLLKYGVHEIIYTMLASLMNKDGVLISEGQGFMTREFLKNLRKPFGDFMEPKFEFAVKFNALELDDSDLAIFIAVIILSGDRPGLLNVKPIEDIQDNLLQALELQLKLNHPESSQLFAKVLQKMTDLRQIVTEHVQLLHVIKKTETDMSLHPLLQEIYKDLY
As to the kind of experiment: PPARγ radioligand binding assay (scintillation proximity, GST-PPARγ-LBD). Conditions: SPA beads. The source says: Background information on the performed assays can be found in: Nichols J S et al. “Development of a scintillation proximity assay for peroxisome proliferator-activated receptor gamma ligand binding domain”, (1998) Anal. Biochem. 257:112-119.
(§1) Full-length cDNA clones for human PPARα and mouse PPARγ were obtained by RT-PCR from human adipose and mouse liver cRNA, respectively, cloned into plasmid vectors and verified by DNA sequencing. Bacterial and mammalian expression vectors were constructed to produce glutathione-s-transferase (GST) and Gal4 DNA binding domain proteins fused to the ligand binding domains (LBD) of PPARγ (aa 174 to 476) and PPARα (aa 167 to 469). To accomplish this, the portions of the cloned sequences encoding the LBDs were amplified from the full-length clones by PCR and then subcloned into the plasmid vectors. Final clones were verified by DNA sequence analysis.
Induction, expression, and purification of GST-LBD fusion proteins were performed in E. coli strain BL21(pLysS) cells by standard methods (Ref: Current Protocols in Molecular Biology, Wiley Press, edited by Ausubel et al.).
Radioligand Binding Assay
PPARγ receptor binding was assayed in TKE50 (50 mM Tris-HCl, pH 8, 50 mM KCl, 2 mM EDTA, 0.1 mg/ml fatty acid-free BSA and 10 mM DTT). For each 96 well reaction an 140 ng equivalent of GST-PPARγ-LBD fusion protein was bound to 10 ug SPA beads (PharmaciaAmersham) in a final volume of 50 ul by shaking. The resulting slurry was incubated for 1 h at RT and centrifuged for 2 min at 1300 g. The supernatant containing unbound protein was removed and the semidry pellet containing the receptor-coated beads was resolved in 50 ul of TKE. For radioligand binding e.g. 10000 dpm 2(S)-(2-benzoyl-phenylamino)-3-{4-[1,1-ditritio-2-(5-methyl-2-phenyl-oxazol-4-yl)-ethoxy]-phenyl}-propionic acid in 50 ul were added, the reaction incubated at RT for 1 h and scintillation proximity counting performed. All binding assays were performed in 96 well plates and the amount of bound ligand measured on a Packard TopCount using OptiPlates (Packard). Nonspecific binding was determined in the presence of 10^−4 M unlabelled compound. Dose response curves were done in triplicates within a range of concentration from 10^−10 M to 10^−4 M.
A general note: Scintillation proximity formats need no separation of bound from free tracer.

A further experiment concerns the target T2, PPARα (Homo sapiens, UniProt Q07869).
T2 construct: expressed in transfected cells; host or cells: BHK21 (ATCC CCL10)
T2 sequence (Q07869 167-468 limits assumed): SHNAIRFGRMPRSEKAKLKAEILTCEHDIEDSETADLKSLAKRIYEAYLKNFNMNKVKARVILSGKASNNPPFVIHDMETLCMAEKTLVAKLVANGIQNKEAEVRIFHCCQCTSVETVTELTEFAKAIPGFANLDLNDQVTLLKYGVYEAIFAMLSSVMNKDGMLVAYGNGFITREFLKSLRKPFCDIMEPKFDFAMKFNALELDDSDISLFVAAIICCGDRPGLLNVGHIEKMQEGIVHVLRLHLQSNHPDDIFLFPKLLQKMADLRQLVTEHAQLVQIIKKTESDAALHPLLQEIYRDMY
Nature of the experiment: Luciferase transcriptional reporter gene assay, pFA-PPARα-LBD in BHK21 cells. In kind it is cell-based. As to conditions: Gal4-PPARα-LBD luciferase reporter, 24 hours incubation. The source says: Full-length cDNA clones for human PPARα and mouse PPARγ were obtained by RT-PCR from human adipose and mouse liver cRNA, respectively, cloned into plasmid vectors and verified by DNA sequencing. […] To accomplish this, the portions of the cloned sequences encoding the LBDs were amplified from the full-length clones by PCR and then subcloned into the plasmid vectors. Final clones were verified by DNA sequence analysis.
(§2) Luciferase Transcriptional Reporter Gene Assays
(§3) Baby hamster kidney cells (BHK21 ATCC CCL10) were grown in DMEM medium containing 10% FBS at 37° C. in a 95%[…]:5%CO2 atmosphere. Cells were seeded in 6 well plates at a density of 10^5 Cells/well and then batch-transfected with either the pFA-PPARγ-LBD or pFA-PPARα-LBD expression plasmids plus the pFR-luc reporter plasmid and an expression plasmid encoding the secretable form of alkaline phosphatase (SEAP) as a normalization control. […] Six hours following transfection, the cells were harvested by trypsinization and seeded in 96 well plates at a density of 10^4 cells/well. After 24 hours to allow attachment of cells, the medium was removed and replaced with 100 ul of phenol red-free medium containing the test substances or control ligands (final. 0.1% DMSO). Following incubation of the cells for 24 hours with substances, 50 ul of the supernatant was recovered and analyzed for SEAP activity (Roche Molecular Biochemicals). The remainder of the supernatant was discarded, 50 ul PBS was added per well followed by one volume of Luciferase Constant-Light Reagent (Roche Molecular Biochemicals) to lyse the cells and initiate the luciferase reaction. Luminescence for both SEAP and luciferase was measured in a Packard TopCount. Luciferase activity was normalized to the SEAP control and transcriptional activation in the presence of a test substance was expressed as fold-activation over cells incubated in the absence of the substance. EC50 values were calculated using the XLfit program (ID Business Solutions Ltd. UK).
A general note: Reporter assays use an easily measured gene product as a stand-in for the process of interest.

In experiment [2] the target is T3, PPARγ (Mus musculus, UniProt P37238).
T3 construct: expressed in transfected cells; host or cells: BHK21 (ATCC CCL10)
T3 sequence (P37238 174-475 isoform P37238-2): T1 sequence (P37238 204-505)
As to the kind of experiment: Luciferase transcriptional reporter gene assay, pFA-PPARγ-LBD in BHK21 cells. In kind it is cell-based. As to conditions: Gal4-PPARγ-LBD luciferase reporter, 24 hours incubation.
From the text: as §1, §2, §3

The term IC50 denotes the midpoint of a concentration-inhibition curve. A low value points to inhibition by little substance. The term EC50 denotes the concentration that produces a half-maximal response. A lower EC50 goes with an effect from little substance. Turning to `CCCN(Cc1ccccc1C(=O)O)c1ccc(OCCc2nc(-c3ccccc3)oc2C)cc1` [Example 6, 2-[({4-[2-(5-methyl-2-phenyl-oxazol-4-yl)-ethoxy]-phenyl}-propyl-amino)-methyl]-benzoic acid], the IC50 on PPARγ [1] is 0.93 µM. Besides, the results for the EC50 on PPARα and on PPARγ [2] were 2.7 µM and 1.32 µM, respectively.

In the case of `Cc1oc(-c2ccccc2)nc1CCOc1ccc(N(Cc2c(F)cccc2C(=O)O)c2ccccc2)cc1` [Example 18, 3-fluoro-2-[({4-[2-(5-methyl-2-phenyl-oxazol-4-yl)-ethoxy]-phenyl}-phenyl-amino)-methyl]-benzoic acid], the concentration for half-maximal inhibition (IC50) at PPARγ [1] amounted to 0.24 µM. The values for the concentration for a half-maximal effect (EC50) at PPARα and at PPARγ [2] were 10 µM and 1.98 µM, respectively.

The molecule `Cc1oc(-c2ccccc2)nc1CCOc1ccc(N(Cc2ccccc2C(=O)O)c2ccc(F)cc2)cc1` [Example 12, 2-[((4-fluoro-phenyl)-{4-[2-(5-methyl-2-phenyl-oxazol-4-yl)-ethoxy]-phenyl}-amino)-methyl]-benzoic acid] gave an IC50 at PPARγ [1] of 1.08 µM. The EC50 at PPARα worked out at 2.59 µM; on PPARγ [2], 2.32 µM.

Turning to `COc1cccc(CN(c2ccccc2)c2ccc(OCCc3nc(-c4ccccc4)oc3C)cc2)c1C(=O)O` [Example 26, 2-methoxy-6-[({4-[2-(5-methyl-2-phenyl-oxazol-4-yl)-ethoxy]-phenyl}-phenyl-amino)-methyl]-benzoic acid], the IC50 on PPARγ [1] was 0.98 µM. Also, the EC50 was 2.05 µM at PPARα and 1.41 µM on PPARγ [2].
